Assay results published in patent publication US20120251630A1, “REMISSION THERAPY OF CANCER WITH ISOFLAVONOIDS” (MARSHALL EDWARDS, INC., priority 2011, published 2012).

Key:
Type in all cases: cell-based, human
[1] = tested on: CD44+/MYD88+ epithelial ovarian cancer (EOC) stem cells; test: ApoSENSOR ADP/ATP ratio assay kit, ATP and ADP levels
Method: FIG. 2 illustrates the levels of ATP and ADP measured at designated times using Apo-SENSOR ADP/ATP ratio assay kit. […] (p<0.0001 compared to control)
FIG. 7. Compound 1-induced loss of ATP leads to mTor inhibition. EOC stem cells were treated with compound 1 in the presence of 10% FBS. FIG. 7 illustrates the levels of ATP and ADP measured at designated times using ApoS-SENSOR ADP/ATP ratio assay kit. # p<0.001 compared to compound 1 alone.
(§1) A panel of CD44+/MYD88+ epithelial ovarian cancer (EOC) stem cells was treated with compound 1 (10 μg/mL) at designated times. CD44+/MYD88+ ovarian cancer stem cells are isolated from either tumor tissue or ascites obtained from patients diagnosed with stage III/IV serous ovarian carcinoma. Mitochondrial function was assessed using the JC1 dye (Biovision Inc), MitoSox dye (Invitrogen), and ApoSENSOR ADP/ATP kit (Biovision Inc.). Protein levels were determined using Western blot analysis. […] The impact of compound 1 on energy production was examined by measuring ADP and ATP levels. […] The stem cells were treated with increasing with compound 1 (10 μg/mL) at times points shown.
(§2) EOC stem cells were treated with compound 1 in the presence of 10% fetal bovine serum (FBS).

EOC stem cells [2] = test: Western blot analysis of protein levels (Cox-IV, pS6 kinase, ERK, AMPKα1)
Method: FIG. 3. Western blot analysis illustrates a decrease in Cox-IV and pS6 kinase, and activation of ERK and AMPKα1 (C).
FIG. 4. EOC stem cells were treated with compound 1 in the presence or absence of the ROS scavenger, MnTBAP. Western blot analysis (FIG. 2) illustrates the effect of MnTBAP pretreatment on mitochondrial ERK, pS6 and β-actin activation. […] Compound 1-induced ROS production leads to ERK activation and loss of mitochondrial membrane potential (MMP).
FIG. 8. Western blot analysis illustrates that treatment of ovarian cancer stem cells with compound 1 in the presence of FBS was able to prevent compound 1 induced decrease in pS6 kinase.
as §1
(§3) Inhibitory studies were done using the specific MEK inhibitor U0126 (10 μM) or the ROS scavenger, MnTBAP (500 μM). EOC stem cells were treated with compound 1 in the presence or absence of the ROS scavenger, MnTBAP (Alexis Biochemicals). […] (FIG. 4) EOC stem cells were treated with compound 1 in the presence or absence of the MEK inhibitor, U0126 (Sigma Aldrich). EOC stem cells were pre-treated with U0126 (10 μM) for 1 hour before treatment with compound 1. Flow cytometry analysis using JC1 green fluorescence illustrates the effect of compound 1 on mitochondrial membrane potential. Pretreatment with U0126 reduced the percentage of cells that lost mitochondrial membrane potential (59% vs 23% for compound 1 along and compound 1 with U0126, respectively) (FIG. 5). The mitochondrial fractions of cells treated with compound 1 in the presence or absence of U0126 were analyzed. […] (FIG. 6)
as §2

ovarian cancer stem cell = test: Mitochondrial function assessment (JC1 dye, MitoSox dye, ApoSENSOR ADP/ATP kit); details: overall conclusion of Example 1
Method: as §1

EOC stem cells [3] = test: Western blot analysis of mitochondrial fractions, Bax
Method: FIG. 6. Western blot analysis using mitochondrial fractions illustrates the effect on mitochondrial Bax. U0126 inhibited compound 1-induced loss of mitochondrial membrane potential and mitochondrial translocation of Bax (member of the proapoptotic Bcl2 family).
as §3

EOC stem cells [4] = test: Flow cytometry with JC1 dye, mitochondrial membrane potential
Method: FIG. 5. EOC stem cells were treated with compound 1 in the presence or absence of the MEK inhibitor, U0126. Flow cytometry analysis using JC1 dye illustrates the effect on mitochondrial membrane potential (MMP). FIG. 5 illustrates that inhibition of ERK with U0126 is able to reverse the effect of compound 1 on MMP.
as §1
Inhibitory studies were done using the specific MEK inhibitor U0126 (10 μM) or the ROS scavenger, MnTBAP (500 μM). […] Flow cytometry analysis using JC1 green fluorescence illustrates the effect of compound 1 on mitochondrial membrane potential. […] The mitochondrial fractions of cells treated with compound 1 in the presence or absence of U0126 were analyzed. […]

[5] = tested on: CD44+/MYD88+ epithelial ovarian cancer (EOC) stem cells; test: Flow cytometry with MitoSox dye, mitochondrial superoxide; details: 10 μg/mL, designated times
Method: FIG. 1. EOC stem cells were treated with 10 μg/ml compound 1 at designated times. Flow cytometry analysis (FIG. 1) illustrates the increased levels of mitochondrial superoxide using MitoSox dye.
as §1

[6] = in the presence of 10% fetal bovine serum (FBS)

**Q.** For `COc1ccc(C2c3ccc(O)c(C)c3OCC2c2ccc(O)cc2)cc1` (stereo not drawn) [compound 1, 3-(4-hydroxyphenyl)-4-(4-methoxyphenyl)-8-methylchroman-7-ol], which ADP level ([1]; 10 μg/mL, after 2 and 4 hours of treatment) is on record?
**A.** Its ADP level is “accumulated ADP”.

**Q.** And the ATP production ([1]; 10 μg/mL, after 2 and 4 hours of treatment, p<0.0001 compared to control)?
**A.** The ATP production was “decrease in ATP production”.

**Q.** And the ATP loss [1, 6]?
**A.** The ATP loss was “Abrogation of ATP loss”.

**Q.** And the “Cox-IV protein level (Western blot)” value (EOC stem cells [2]; 10 μg/mL)?
**A.** The value was “decreases activation”.

**Q.** What about the “activation of AMPKα1 (Western blot)” value (EOC stem cells [2]; 10 μg/mL) of the same compound?
**A.** The value was “increases activation”.

**Q.** What about the “activation of ERK (Western blot)” value (EOC stem cells [2]; 10 μg/mL) of the same compound?
**A.** Its value is “increases activation”.

**Q.** And the “activation of pS6 kinase (Western blot)” value (EOC stem cells [2]; 10 μg/mL)?
**A.** Its value is “decreases activation”.

**Q.** And the “compound 1-induced decrease in pS6k” value (EOC stem cells [2]; [6])?
**A.** The value was “prevented compound 1-induced decrease in pS6k”.

**Q.** What about the “compound 1-induced activation of mitochondrial ERK” value (EOC stem cells [2]; in the presence of ROS scavenger MnTBAP (500 μM)) of the same compound?
**A.** The value was “MnTBAP inhibited compound 1-induced activation of mitochondrial ERK”.

**Q.** What about the mitochondrial function (ovarian cancer stem cell) of the same compound?
**A.** The mitochondrial function was “significantly inhibits mitochondrial function”.

**Q.** And the “mitochondrial Bax (proapoptotic Bcl2 family member)” value (EOC stem cells [3]; compound 1 alone, mitochondrial fractions)?
**A.** Its value is “upregulates”.

**Q.** And the “compound 1-induced upregulation of mitochondrial Bax” value (EOC stem cells [3]; pre-treatment with U0126 followed by compound 1)?
**A.** Its value is “prevented compound 1-induced upregulation”.

**Q.** And the “percentage of cells that lost mitochondrial membrane potential” value (EOC stem cells [4]; compound 1 alone)?
**A.** The value was 59%.

**Q.** And the “percentage of cells that lost mitochondrial membrane potential” value (EOC stem cells [4]; pre-treated with MEK inhibitor U0126 (10 μM) for 1 hour before compound 1)?
**A.** Its value is 23%.

**Q.** What about the “mitochondrial superoxide (MitoSox fluorescence)” value [5] of the same compound?
**A.** Its value is “increase in mitochondrial superoxide”.
